Tests used:
Type in all cases: in vivo, human
[1] = Plasma pharmacokinetics, Part A; conditions: for AUC(0-t) / AUC(0-inf) / Cmax / Tmax / half-life: human, plasma, oral; for AUC(0-t): AUC0–last; for AUC(0-inf): AUC0–∞
healthy subjects [2] = experiment: ECG by timepoint analysis and categorical outliers, Part B
healthy subjects [3] = experiment: Concentration-QTc
healthy subjects [4] = experiment: Safety assessment; conditions: Part A
[5] = 1200 mg, Mean (SD), rilzabrutinib 1200 mg single dose
[6] = 1200 mg, Median (range), rilzabrutinib 1200 mg single dose
[7] = Mean (SD), rilzabrutinib 100 mg + ritonavir 100 mg b.i.d., rilzabrutinib in plasma
[8] = Median (range), rilzabrutinib 100 mg + ritonavir 100 mg b.i.d., rilzabrutinib in plasma
[9] = rilzabrutinib 100 mg + ritonavir 100 mg vs 100 mg alone
[10] = Part B, linear model with an intercept
[11] = rilzabrutinib 100 mg + ritonavir 100 mg

SMILES: CC(C)(/C=C(\C#N)C(=O)N1CCC[C@@H](n2nc(-c3ccc(Oc4ccccc4)cc3F)c3c(N)ncnc32)C1)N1CCN(C2COC2)CC1 [Rilzabrutinib, rilzabrutinib]
- AUC(0-t) [1, 5]: 2470 ng·h/mL
- AUC(0-t) [1, 6]: 551 ng·h/mL
- AUC(0-inf) [1, 5]: 2470 ng·h/mL
- AUC(0-inf) [1, 6]: 553 ng·h/mL
- Cmax [1, 5]: 569 ng/mL
- Cmax [1, 6]: 136 ng/mL
- Tmax [1, 5]: 2.9 h
- Tmax [1, 6]: ~3 h
- half-life ([1]; 1200 mg, t 1/2, Mean (SD), rilzabrutinib 1200 mg single dose): 3.1 h
- half-life ([1]; 1200 mg, t 1/2, Median (range), rilzabrutinib 1200 mg single dose): 3.2 h
- AUC(0-t) [1, 7]: 1080 ng·h/mL
- AUC(0-t) [1, 8]: 771 ng·h/mL
- AUC(0-inf) [1, 7]: 1100 ng·h/mL
- AUC(0-inf) [1, 8]: 778 ng·h/mL
- Cmax [1, 7]: 223 ng/mL
- Cmax [1, 8]: 157 ng/mL
- Tmax [1, 7]: 2.3 h
- Tmax [1, 8]: 2.5 h
- half-life ([1]; t 1/2, Mean (SD), rilzabrutinib 100 mg + ritonavir 100 mg b.i.d., rilzabrutinib in plasma): 4 h
- half-life ([1]; t 1/2, Median (range), rilzabrutinib 100 mg + ritonavir 100 mg b.i.d., rilzabrutinib in plasma): 4 h
- increase in rilzabrutinib AUC0–∞ with ritonavir over rilzabrutinib alone [1, 9]: 17 fold
- increase in rilzabrutinib Cmax with ritonavir over rilzabrutinib alone [1, 9]: 7 fold
- Tmax, Median (range) ([1]; rilzabrutinib 100 mg single dose): 1.0 (0.5–2.0) h
- Tmax, Median (range) ([1]; rilzabrutinib 1200 mg single dose): 3.0 (1.5–4.0) h
- effect on HR (healthy subjects [2]; Part B): no effect on HR
- effect on cardiac conduction (PR and QRS intervals) (healthy subjects [2]; Part B, at the studied doses): no clinically relevant effect
- treatment-emergent T-wave or U-wave morphology changes (healthy subjects [2]; Part B, following 400 mg rilzabrutinib): one subject with a flat T wave at two timepoints
- effects on ECG parameters, including the QTc interval (healthy subjects [2]; therapeutic and supratherapeutic (with ritonavir) exposures): no clinically relevant effects
- concentration–QTc relationship (slope) (healthy subjects [3]; Part B): -0.01 ms/ng/mL
- predicted ΔΔQTcF at the observed geometric mean Cmax (healthy subjects [3]; Part B, 400 mg alone): -3.4 ms
- estimated population slope of the C-QTc relationship (healthy subjects [3]; [10]): 0.01 ms per ng/mL
- intercept of the C-QTc relationship (healthy subjects [3]; [10]): -2.0 ms
- predicted ΔΔQTcF at the observed geometric mean Cmax (healthy subjects [3]; Part B, rilzabrutinib 400 mg with ritonavir): -9.9 ms
- predicted ΔΔQTcF interval at Cmax (healthy subjects [3]; both therapeutic and supratherapeutic dose groups): < 0 ms
- predicted upper bound 90% CI of QTc effect (healthy subjects [3]; therapeutic and supratherapeutic concentrations): < 10 ms
- serious TEAEs, deaths, or TEAEs leading to study drug interruption/discontinuation (healthy subjects [4]): no serious TEAEs, deaths, or TEAEs leading to study drug interruption/discontinuation
- severity of rilzabrutinib-related TEAEs (healthy subjects [4]): mostly mild (grade 1)
- participants with TEAEs deemed related to rilzabrutinib treatment (healthy subjects [4]; 100 mg plus ritonavir 100 mg, one event in one participant): 9.1%
- participants with TEAEs deemed related to rilzabrutinib treatment (GI-related) (healthy subjects [4]; 1200 mg, five events in three participants): 75%
- rilzabrutinib-related TEAEs (healthy subjects [4]; following 100 mg rilzabrutinib): no rilzabrutinib‐related TEAEs reported
- Treatment-related TEAE: Diarrhea, n (%) (healthy subjects [4]; rilzabrutinib 100 mg): 0 n (%)
- Treatment-related TEAE: Dizziness, n (%) (healthy subjects [4]; rilzabrutinib 100 mg): 0 n (%)
- Treatment-related TEAE: Gastrointestinal disorders, n (%) (healthy subjects [4]; rilzabrutinib 100 mg): 0 n (%)
- Treatment-related TEAE: Nausea, n (%) (healthy subjects [4]; rilzabrutinib 100 mg): 0 n (%)
- Treatment-related TEAE: Nervous system disorders, n (%) (healthy subjects [4]; rilzabrutinib 100 mg): 1 (8.3) n (%)
- Treatment-related TEAE: Orthostatic hypotension, n (%) (healthy subjects [4]; rilzabrutinib 100 mg): 0 n (%)
- Treatment-related TEAE: Subjects with ≥1 TEAE, n (%) (healthy subjects [4]; rilzabrutinib 100 mg): 0 n (%)
- Treatment-related TEAE: Vascular disorders, n (%) (healthy subjects [4]; rilzabrutinib 100 mg): 0 n (%)
- Treatment-related TEAE: Vomiting, n (%) (healthy subjects [4]; rilzabrutinib 100 mg): 0 n (%)
- Treatment-related TEAE: Diarrhea, n (%) (healthy subjects [4]; [11]): 0 n (%)
- Treatment-related TEAE: Dizziness, n (%) (healthy subjects [4]; [11]): 1 (9.1) n (%)
- Treatment-related TEAE: Gastrointestinal disorders, n (%) (healthy subjects [4]; [11]): 0 n (%)
- Treatment-related TEAE: Nausea, n (%) (healthy subjects [4]; [11]): 0 n (%)
- Treatment-related TEAE: Orthostatic hypotension, n (%) (healthy subjects [4]; [11]): 0 n (%)
- Treatment-related TEAE: Subjects with ≥1 TEAE, n (%) (healthy subjects [4]; [11]): 1 (9.1) n (%)
- Treatment-related TEAE: Vascular disorders, n (%) (healthy subjects [4]; [11]): 0 n (%)
- Treatment-related TEAE: Vomiting, n (%) (healthy subjects [4]; [11]): 0 n (%)
- Treatment-related TEAE: Diarrhea, n (%) (healthy subjects [4]; rilzabrutinib 1200 mg): 2 (50.0) n (%)
- Treatment-related TEAE: Dizziness, n (%) (healthy subjects [4]; rilzabrutinib 1200 mg): 1 (25.0) n (%)
- Treatment-related TEAE: Gastrointestinal disorders, n (%) (healthy subjects [4]; rilzabrutinib 1200 mg): 3 (75.0) n (%)
- Treatment-related TEAE: Nausea, n (%) (healthy subjects [4]; rilzabrutinib 1200 mg): 2 (50.0) n (%)
- Treatment-related TEAE: Nervous system disorders, n (%) (healthy subjects [4]; rilzabrutinib 1200 mg): 1 (25.0) n (%)
- Treatment-related TEAE: Orthostatic hypotension, n (%) (healthy subjects [4]; rilzabrutinib 1200 mg): 1 (25.0) n (%)
- Treatment-related TEAE: Subjects with ≥1 TEAE, n (%) (healthy subjects [4]; rilzabrutinib 1200 mg): 3 (75.0) n (%)
- Treatment-related TEAE: Vascular disorders, n (%) (healthy subjects [4]; rilzabrutinib 1200 mg): 1 (25.0) n (%)
- Treatment-related TEAE: Vomiting, n (%) (healthy subjects [4]; rilzabrutinib 1200 mg): 1 (25.0) n (%)
- tolerability (healthy subjects [4]; single dose of 100 mg): well tolerated

From paper PMC9199881 (Clinical and Translational Science, 2022)
